Measured values taken from patent publication US9260429B2, “Pyrido[3,4-B]indoles and methods of use” (Medivation Technologies, Inc., priority 2008, dated 2016).

What was measured:
[1] = target: T1, human recombinant serotonin (5-Hydroxytryptamine) 5-HT2C receptor (Homo sapiens, UniProt P28335); experiment: Serotonin 5-HT2C radioligand binding ([3H]Mesulergine); conditions: 1 h; read-out: Percent Inhibition of ligand binding Serotonin (1 μM ligand concentration) 5-HT2C
T1 construct: expressed in transfected cells; host or cells: CHO-K1 cells
T1 sequence (P28335 33-458): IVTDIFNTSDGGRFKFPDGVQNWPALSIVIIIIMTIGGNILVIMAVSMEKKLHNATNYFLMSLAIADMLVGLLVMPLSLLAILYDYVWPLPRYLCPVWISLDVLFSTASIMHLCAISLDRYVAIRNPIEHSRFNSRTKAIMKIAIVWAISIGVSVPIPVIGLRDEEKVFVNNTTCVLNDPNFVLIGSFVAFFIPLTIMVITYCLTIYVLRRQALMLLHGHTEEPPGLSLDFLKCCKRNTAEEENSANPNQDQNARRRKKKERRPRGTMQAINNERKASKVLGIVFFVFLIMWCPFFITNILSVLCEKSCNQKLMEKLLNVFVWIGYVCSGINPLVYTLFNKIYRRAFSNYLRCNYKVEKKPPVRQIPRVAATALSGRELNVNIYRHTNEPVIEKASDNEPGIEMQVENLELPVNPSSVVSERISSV
Description: Compounds of the invention were incubated with 1 nM [^3H]Mesulergine for 60 minutes at 25° C. Non-specific binding was estimated in the presence of 1 μM Mianserin. Receptor proteins were filtered and washed, the filters were then counted to determine [^3H]Mesulergine specifically bound. […] Biochemical assay results are presented as the percent inhibition of specific binding in Table 5.

[2] = target: T2, human recombinant histamine H1 receptor (Homo sapiens, UniProt P35367); experiment: Histamine H1 radioligand binding ([3H]Pyrilamine); conditions: 1 μM; read-out: Binding data (Percentage Inhibition) Histamine Binding (1 μM) H1
T2 construct: expressed in transfected cells; host or cells: CHO cells
T2 sequence (P35367 whole entry): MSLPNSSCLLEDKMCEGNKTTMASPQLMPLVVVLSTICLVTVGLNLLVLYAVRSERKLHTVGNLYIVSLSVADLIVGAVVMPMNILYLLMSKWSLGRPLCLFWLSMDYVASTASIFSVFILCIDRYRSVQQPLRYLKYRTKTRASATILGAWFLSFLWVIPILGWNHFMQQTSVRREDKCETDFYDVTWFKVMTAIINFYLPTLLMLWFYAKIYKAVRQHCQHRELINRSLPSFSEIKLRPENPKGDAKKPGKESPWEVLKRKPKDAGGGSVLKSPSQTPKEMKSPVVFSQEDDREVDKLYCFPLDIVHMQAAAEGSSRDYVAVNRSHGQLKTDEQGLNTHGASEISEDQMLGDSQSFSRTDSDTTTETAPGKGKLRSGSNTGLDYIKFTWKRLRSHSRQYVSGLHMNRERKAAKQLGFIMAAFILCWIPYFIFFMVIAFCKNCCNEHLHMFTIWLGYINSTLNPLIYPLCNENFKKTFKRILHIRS
Description: To evaluate in radioligand binding assays the activity of compounds of the invention, human recombinant histamine H1 receptor expressed in Chinese hamster ovary (CHO) cells (De Backer, M. D. et al., Biochem. Biophys. Res. Comm. 197(3):1601, 1993) in a modified Tris-HCl buffer (50 mM Tris-HCl, pH 7.4, 2 mM MgCl2, 100 mM NaCl, 250 mM Sucrose) was used. Compounds of the invention were incubated with 1.2 nM [^3H]Pyrilamine for 180 minutes at 25° C. Non-specific binding was estimated in the presence of 1 μM pyrilamine. Receptor proteins were filtered and washed, the filters were then counted to determine [^3H]Pyrilamine specifically bound. […] Biochemical assay results are presented as the percent inhibition of specific binding in Table 3.

[3] = target: T3, human recombinant serotonin (5-Hydroxytryptamine) 5-HT6 receptor (Homo sapiens, UniProt P50406); experiment: Serotonin 5-HT6 radioligand binding ([3H]LSD); conditions: 2 h; read-out: Percent Inhibition of ligand binding Serotonin (1 μM ligand concentration) 5-HT6
T3 construct: expressed in transfected cells; host or cells: human HeLa cells
T3 sequence (P50406 whole entry): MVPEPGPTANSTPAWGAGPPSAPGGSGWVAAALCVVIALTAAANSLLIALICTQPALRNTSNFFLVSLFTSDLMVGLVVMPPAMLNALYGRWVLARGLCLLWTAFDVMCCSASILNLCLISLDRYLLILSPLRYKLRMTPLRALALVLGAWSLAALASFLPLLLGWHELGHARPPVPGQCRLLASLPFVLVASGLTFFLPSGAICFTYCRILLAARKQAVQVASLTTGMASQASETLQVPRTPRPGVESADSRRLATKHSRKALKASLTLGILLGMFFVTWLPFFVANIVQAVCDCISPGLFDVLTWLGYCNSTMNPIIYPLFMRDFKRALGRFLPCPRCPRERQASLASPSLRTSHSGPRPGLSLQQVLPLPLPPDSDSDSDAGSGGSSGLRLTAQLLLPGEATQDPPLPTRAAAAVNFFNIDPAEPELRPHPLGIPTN
Description: To evaluate in radioligand binding assays the activity of compounds of the invention, human recombinant serotonin (5-Hydroxytryptamine) 5-HT6 receptor expressed in human HeLa cells (Monsma, F. J. Jr. et al., Mol. Pharmacol. 43:320, 1993) in a modified Tris-HCl buffer (50 mM Tris-HCl, pH 7.4, 150 mM NaCl, 2 mM Ascorbic Acid, 0.001% BSA) was used. Compounds of the invention were incubated with 1.5 nM [3H]Lysergic acid diethylamide (LSD) for 120 minutes at 37° C. Non-specific binding was estimated in the presence of […] Serotonin (5-HT). Receptor proteins were filtered and washed, the filters were then counted to determine [3H]LSD specifically bound. Compounds were screened at 1 μM or lower, using 1% DMSO as vehicle. Biochemical assay results are presented as the percent inhibition of specific binding in Table 5.

[4] = target: T4, human recombinant histamine H2 receptor (Homo sapiens, UniProt P25021); experiment: Histamine H2 radioligand binding ([125I]Aminopotentidine); conditions: 1 μM; inhibition of specific [125I]Aminopotentidine binding; read-out: Binding data (Percentage Inhibition) Histamine Binding (1 μM) H2
T4 construct: expressed in transfected cells; host or cells: CHO-K1 cells
T4 sequence (P25021 whole entry): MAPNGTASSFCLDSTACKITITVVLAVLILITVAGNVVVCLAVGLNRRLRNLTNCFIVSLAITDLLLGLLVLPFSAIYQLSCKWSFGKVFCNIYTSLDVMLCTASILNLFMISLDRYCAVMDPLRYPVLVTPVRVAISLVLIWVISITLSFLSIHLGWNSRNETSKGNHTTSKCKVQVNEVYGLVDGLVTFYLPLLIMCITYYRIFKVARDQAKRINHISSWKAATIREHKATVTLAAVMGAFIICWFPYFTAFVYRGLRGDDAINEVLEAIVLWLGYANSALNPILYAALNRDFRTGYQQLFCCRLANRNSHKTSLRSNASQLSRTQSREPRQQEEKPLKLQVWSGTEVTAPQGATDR
Description: To evaluate in radioligand binding assays the activity of compounds of the invention, human recombinant histamine H2 receptor expressed in Chinese hamster ovary (CHO) K1 cells (Ruat, M., Proc. Natl. Acad. Sci. USA. 87(5):1658, 1990) in a 50 mM Phosphate buffer, pH 7.4 was used. Compounds of the invention were incubated with 0.1 nM [^125I]Aminopotentidine for 120 minutes at 25° C. Non-specific binding was estimated in the presence of 3 μM Tiotidine. Receptor proteins were filtered and washed, the filters were then counted to determine [^125I]Aminopotentidine specifically bound. Compounds were screened at 1 μM or lower, using 1% DMSO as vehicle. Biochemical assay results are presented as the percent inhibition of specific binding in Table 3.

[5] = target: T5, human recombinant serotonin (5-Hydroxytryptamine) 5-HT2A receptor (Homo sapiens, UniProt P28223); experiment: Serotonin 5-HT2A radioligand binding ([3H]Ketanserin); conditions: 1 h; read-out: Percent Inhibition of ligand binding Serotonin (1 μM ligand concentration) 5-HT2A
T5 construct: expressed in transfected cells; host or cells: CHO-K1 cells
T5 sequence (P28223 whole entry): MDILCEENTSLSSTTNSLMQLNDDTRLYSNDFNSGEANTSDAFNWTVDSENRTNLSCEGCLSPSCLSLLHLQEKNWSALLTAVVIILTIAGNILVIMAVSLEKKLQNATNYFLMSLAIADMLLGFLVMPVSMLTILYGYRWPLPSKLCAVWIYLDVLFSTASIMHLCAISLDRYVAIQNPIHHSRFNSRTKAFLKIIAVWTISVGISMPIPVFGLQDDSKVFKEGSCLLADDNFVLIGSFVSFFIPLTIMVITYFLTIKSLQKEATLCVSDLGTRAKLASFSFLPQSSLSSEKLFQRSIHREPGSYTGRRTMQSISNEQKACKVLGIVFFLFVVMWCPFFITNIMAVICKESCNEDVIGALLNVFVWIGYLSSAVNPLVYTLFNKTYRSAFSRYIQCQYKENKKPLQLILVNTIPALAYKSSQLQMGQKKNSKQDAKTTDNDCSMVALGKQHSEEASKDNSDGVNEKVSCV
Description: To evaluate in radioligand binding assays the activity of compounds of the invention, human recombinant serotonin (5-Hydroxytryptamine) 5-HT2A receptor expressed in Chinese hamster ovary (CHO-K1) cells (Bonhaus, D. W. et al. Br. J. Pharmacol. 115:622, 1995; Saucier, C. and Albert, P. R., J. Neurochem. 68:1998, 1997) in a 50 mM Tris-HCl buffer, pH 7.4, was used. Compounds of the invention were incubated with 0.5 nM [^3H]Ketanserin for 60 minutes at 25° C. Non-specific binding was estimated in the presence of 1 μM Mianserin. Receptor proteins were filtered and washed, the filters were then counted to determine [^3H]Ketanserin specifically bound. Compounds were screened at 1 μM or lower, using 1% DMSO as vehicle. Biochemical assay results are presented as the percent inhibition of specific binding in Table 5.

[6] = target: T6, human recombinant serotonin (5-Hydroxytryptamine) 5-HT7 receptor (Homo sapiens, UniProt P34969); experiment: Serotonin 5-HT7 radioligand binding ([3H]LSD); conditions: 2 h; read-out: Percent Inhibition of ligand binding Serotonin (1 μM ligand concentration) 5-HT7
T6 construct: expressed in transfected cells; host or cells: CHO cells
T6 sequence (P34969 whole entry): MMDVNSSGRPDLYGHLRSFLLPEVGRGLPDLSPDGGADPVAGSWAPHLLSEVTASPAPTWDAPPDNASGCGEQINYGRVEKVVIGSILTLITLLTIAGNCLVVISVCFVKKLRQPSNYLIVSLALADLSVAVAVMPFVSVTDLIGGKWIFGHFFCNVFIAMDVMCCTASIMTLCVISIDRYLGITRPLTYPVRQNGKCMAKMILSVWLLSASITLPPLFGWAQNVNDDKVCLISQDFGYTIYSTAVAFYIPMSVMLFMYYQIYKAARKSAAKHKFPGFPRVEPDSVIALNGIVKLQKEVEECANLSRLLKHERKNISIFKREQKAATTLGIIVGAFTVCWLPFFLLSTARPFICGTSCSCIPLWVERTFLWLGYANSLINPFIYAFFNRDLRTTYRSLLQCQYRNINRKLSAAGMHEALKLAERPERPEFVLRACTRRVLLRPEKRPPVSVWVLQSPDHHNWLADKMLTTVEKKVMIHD
Description: To evaluate in radioligand binding assays the activity of compounds of the invention, human recombinant serotonin (5-Hydroxytryptamine) 5-HT7 receptor expressed in Chinese hamster ovary (CHO) cells (Roth, B. L. et al., J. Pharmacol. Exp. Ther. 268:1403, 1994; Shen, Y. et al., J. Biol. Chem. 268:18200, 1993) in a modified Tris-HCl buffer (50 mM Tris-HCl, pH 7.4, 10 mM MgCl2, 0.5 mM EDTA) was used. Compounds of invention were incubated with 5.5 nM [^3H]Lysergic acid diethylamide (LSD) for 2 hours at 25° C. Non-specific binding was estimated in the presence of […] Serotonin (5-HT). Receptor proteins were filtered and washed, the filters were then counted to determine [^3H]LSD specifically bound. Compounds were screened at 1 μM or lower, using 1% DMSO as vehicle. Biochemical assay results are presented as the percent inhibition of specific binding in Table 5.

[7] = target: T7, human recombinant dopamine D2L receptor (Homo sapiens, UniProt P14416); experiment: Dopamine D2L radioligand binding ([3H]Spiperone); conditions: 2 h, 1 μM ligand conc.; read-out: Percent Inhibition of ligand binding Dopamine (1 μM ligand conc.) D2L
T7 construct: expressed in transfected cells; host or cells: CHO cells
T7 sequence (P14416 whole entry): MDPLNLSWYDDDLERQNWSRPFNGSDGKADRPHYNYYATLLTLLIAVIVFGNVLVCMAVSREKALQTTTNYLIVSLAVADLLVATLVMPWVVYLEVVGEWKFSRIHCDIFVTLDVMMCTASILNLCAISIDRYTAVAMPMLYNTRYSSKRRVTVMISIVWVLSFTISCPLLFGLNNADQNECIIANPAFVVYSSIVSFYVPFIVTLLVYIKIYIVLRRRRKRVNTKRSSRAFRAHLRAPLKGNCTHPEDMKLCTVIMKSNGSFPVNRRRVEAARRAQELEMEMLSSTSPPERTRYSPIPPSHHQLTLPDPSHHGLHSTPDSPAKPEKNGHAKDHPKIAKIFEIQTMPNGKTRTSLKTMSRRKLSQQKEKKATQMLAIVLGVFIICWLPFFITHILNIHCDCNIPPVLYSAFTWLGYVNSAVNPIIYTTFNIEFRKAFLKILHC
Description: To evaluate in radioligand binding assays the activity of compounds of the invention, human recombinant dopamine D2L receptor expressed in Chinese hamster ovary (CHO) cells (Grandy, D. K. et al. Proc. Natl. Acad. Sci. USA. 86:9762, 1989; Hayes, G. et al., Mol. Endocrinol. 6:920, 1992) in a modified Tris-HCl buffer (50 mM Tris-HCl, pH 7.4, 1.4 mM Ascorbic Acid, 0.001% BSA, 150 mM NaCl) was used. Compounds of the invention were incubated with 0.16 nM [^3H]Spiperone for 120 minutes at 25° C. Non-specific binding was estimated in the presence of […] Haloperidol. Receptor proteins were filtered and washed, the filters were then counted to determine [^3H]Spiperone specifically bound. Compounds were screened at 1 μM or lower, using 1% DMSO as vehicle. Biochemical assay results are presented as the percent inhibition of specific binding in Table 4.

[8] = tested on: brain cells (neurons); conditions: preclinical models of Alzheimer's disease and Huntington's disease; cited from earlier work
[9] = tested on: neuronal cells; conditions: cited from earlier work
[10] = tested on: cells treated with ionomycin; conditions: after treatment with the cell toxin ionomycin; dose dependent; cited from earlier work

Row | SMILES | inhibition at 1 µM [1] | inhibition at 1 µM [2] | inhibition at 1 µM [3] | inhibition at 1 µM [4] | inhibition at 1 µM [5] | inhibition at 1 µM [6] | inhibition at 1 µM [7] | death of brain cells (neurons) [8] | neurite outgrowth and neurogenesis [9] | mitochondrial function [10] | number of surviving cells [10]
1 | C/C(=C\n1c2c(c3cc(C)ccc31)CCN(C)C2C)c1ccc(Cl)cc1Cl (centres unmarked) [Compound 178] | 101% | 44% | 25% | 54% | 97% | 59% | 3% | – | – | – | –
2 | Cc1ccc2c(c1)c1c(n2CCc2ccc(C)nc2)CCN(C)C1 [Dimebon, dimebon] | – | – | – | – | – | – | – | inhibit the death of brain cells (neurons) | promote neurite outgrowth and neurogenesis | improved mitochondrial function | increased the number of surviving cells
